Test results as given in the supplement of paper PMC11061612.

Key:
Test in all cases: combination Emax (second highest fraction inhibited in the dose matrix, 72 h); higher = more inhibition; extreme values may be limits of the assay
[1] = tested on: CHSA8926 (Chondrosarcoma)
Method in brief: (§1)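 Cell lines grown in DMEM/F12 or RPMI with 10% FBS were plated in 1536-well plates and held 24 hours at 37°C, 5% CO2 before 72 hours of exposure to two-drug dose matrices, with DMSO typically at 0.2%. CellTiter-Glo 2.0 luminescence gave viability, which was converted to inhibition. Vehicle wells were set to 0 and blank wells to 1. Combination Emax is the second-highest inhibition in the matrix, and Bliss excess is the observed combination effect minus the expected EA + EB − EA·EB, where EA and EB are the single-agent effects.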

[2] = tested on: COR-L279 (Small Cell Lung Carcinoma)
Method in brief: as §1

[3] = tested on: CW-2 (Colorectal Carcinoma)
Method in brief: as §1

[4] = tested on: DMS-114 (Small Cell Lung Carcinoma)
Method in brief: as §1

[5] = tested on: IM-95 (Gastric Carcinoma)
Method in brief: as §1

[6] = tested on: KU812 (Chronic Myelogenous Leukemia)
Method in brief: as §1

[7] = tested on: KY821 (Acute Myeloid Leukemia)
Method in brief: as §1

[8] = tested on: KYSE-270 (Esophageal Squamous Cell Carcinoma)
Method in brief: as §1

M059J (Glioblastoma) = tested on: M059J (Glioblastoma)
Method in brief: as §1

[9] = tested on: MN-60 (B-Lymphoblastic Leukemia)
Method in brief: as §1

[10] = tested on: MOG-G-CCM (Low Grade Glioma)
Method in brief: as §1

[11] = tested on: NCI-H3122 (Lung Adenocarcinoma)
Method in brief: as §1

[12] = tested on: NCI-H520 (Squamous Cell Lung Carcinoma)
Method in brief: as §1

[13] = tested on: NCI-H661 (Non-Small Cell Lung Carcinoma)
Method in brief: as §1

[14] = tested on: NCI-H929 (Plasma Cell Myeloma)
Method in brief: as §1

SJSA-1 (Osteosarcoma) = tested on: SJSA-1 (Osteosarcoma)
Method in brief: as §1

[15] = tested on: SK-GT-4 (Esophageal Adenocarcinoma)
Method in brief: as §1

[16] = tested on: ST486 (Burkitt's Lymphoma)
Method in brief: as §1

[17] = tested on: SU-DHL-5 (B-Cell Non-Hodgkin's Lymphoma)
Method in brief: as §1

[18] = tested on: VMRC-RCZ (Kidney Carcinoma)
Method in brief: as §1

| SMILES | combination Emax [1] | combination Emax [2] | combination Emax [3] | combination Emax [4] | combination Emax [5] | combination Emax [6] | combination Emax [7] | combination Emax [8] | combination Emax (M059J (Glioblastoma)) | combination Emax [9] | combination Emax [10] | combination Emax [11] | combination Emax [12] | combination Emax [13] | combination Emax [14] | combination Emax (SJSA-1 (Osteosarcoma)) | combination Emax [15] | combination Emax [16] | combination Emax [17] | combination Emax [18] |
| --- | --- | --- | --- | --- | --- | --- | --- | --- | --- | --- | --- | --- | --- | --- | --- | --- | --- | --- | --- | --- |
| CN(C)CCCOc1ccc(-c2ccc3ncc4c(c3c2)n(C2CCOCC2)c(=O)n4C)cn1 [AZD0156] + CCN(CCO)CCCOc1ccc2c(Nc3cc(CC(=O)Nc4cccc(F)c4)[nH]n3)ncnc2c1 [AZD2811] (first compound max 1 µM, 7x7, partner max 1 µM) | 0.214 | 0.776 | 0.123 | 0.232 | 0.438 | 0.584 | 0.559 | 0.0944 | 0.338 | 0.207 | 0.367 | 0.446 | 0.458 | 0.0442 | 0.815 | 0.123 | 0.192 | 0.913 | 0.931 | 0.078 |
| CCN(CCO)CCCOc1ccc2c(Nc3cc(CC(=O)Nc4cccc(F)c4)[nH]n3)ncnc2c1 [AZD2811] + O=C(c1cc(Cc2n[nH]c(=O)c3ccccc23)ccc1F)N1CCN(C(=O)C2CC2)CC1 [Olaparib] (first compound max 1 µM, 7x7, partner max 10 µM) | 0.3 | 0.945 | 0.162 | 0.177 | 0.362 | 0.678 | 0.455 | 0.322 | 0.413 | 0.301 | 0.285 | 0.271 | 0.345 | 0.155 | 0.292 | 0.17 | 0.223 | 0.856 | 1 | 0.195 |
| Cn1cnc2c(F)c(Nc3ccc(Br)cc3Cl)c(C(=O)NOCCO)cc21 [Selumetinib] + CCN(CCO)CCCOc1ccc2c(Nc3cc(CC(=O)Nc4cccc(F)c4)[nH]n3)ncnc2c1 [AZD2811] (first compound max 10 µM, 7x7, partner max 1 µM) | 0.139 | 0.765 | 0.349 | 0.281 | 0.519 | 0.951 | 0.843 | 0.295 | 0.237 | 0.342 | 0.457 | 0.653 | 0.17 | 0.0527 | 0.698 | 0.384 | 0.533 | 0.852 | 0.915 | 0.152 |
| Cc1c2c(nn1C)CSCc1cc(n(C)n1)CSc1cc(c3ccccc3c1)OCCCc1c(C(=O)O)n(C)c3c-2c(Cl)ccc13 [AZD5991] + C1CN(CCC1(C(=O)N[C@@H](CCO)C2=CC=C(C=C2)Cl)N)C3=NC=NC4=C3C=CN4 [Capivasertib] (first compound max 1 µM, 7x7, partner max 3 µM) | 0.597 | 0.579 | 0.179 | 0.911 | 0.784 | 0.858 | 1 | 0.505 | 0.44 | 0.339 | 0.326 | 0.419 | 0.561 | 0.755 | 1 | 0.374 | 0.377 | 0.829 | 1 | 0.336 |
| COc1cc2ncnc(Nc3ccc(F)c(Cl)c3)c2cc1OCCCN1CCOCC1 [Gefitinib] + CC(C)n1c(=O)n(C)c2cnc3cc(F)c(-c4ccc(OCCCN5CCCCC5)nc4)cc3c21 [AZD1390] (first compound max 10 µM, 7x7, partner max 0.3 µM) | 0.194 | 0.395 | 0.41 | 0.255 | 0.171 | 0.425 | 0.416 | 0.435 | 0.178 | 0.0314 | 0.137 | 0.0961 | 0.15 | 0.0361 | 0.187 | 0.0992 | 0.373 | 0.35 | 0.393 | 0.11 |
| CN(CCO)CC[C@H](CSc1ccccc1)Nc1ccc(S(=O)(=O)NC(=O)c2ccc(N3CCC([C@@H](O)c4ccccc4-c4ccc(Cl)cc4)CC3)cc2)cc1S(=O)(=O)C(F)(F)F [AZD4320] + CN(C)CCCOc1ccc(-c2ccc3ncc4c(c3c2)n(C2CCOCC2)c(=O)n4C)cn1 [AZD0156] (first compound max 1 µM, 7x7, partner max 1 µM) | 0.46 | 0.983 | 0.136 | 0.12 | 0.69 | 0.751 | 1 | 0.0949 | 0.366 | 0.263 | 0.474 | 0.209 | 0.474 | 0.0831 | 0.681 | 0.283 | 0.188 | 0.911 | 0.512 | 0.13 |
| CC(=O)c1c(C)c2cnc(Nc3ccc(N4CCNCC4)cn3)nc2n(C2CCCC2)c1=O [Palbociclib] + Cn1cnc2c(F)c(Nc3ccc(Br)cc3Cl)c(C(=O)NOCCO)cc21 [Selumetinib] (first compound max 10 µM, 7x7, partner max 10 µM) | 0.178 | 0.37 | 0.451 | 0.264 | 0.315 | 0.904 | 0.861 | 0.252 | 0.179 | 0.402 | 0.157 | 0.701 | 0.679 | 0.119 | 0.79 | 0.424 | 0.566 | 0.79 | 1 | 0.115 |
| CC(=O)Nc1cccc(-n2c(=O)n(C3CC3)c(=O)c3c(Nc4ccc(I)cc4F)n(C)c(=O)c(C)c32)c1 [Trametinib] + Cc1nc(-c2cn3c(n2)-c2ccc(-c4cnn(C(C)(C)C(N)=O)c4)cc2OCC3)n(C(C)C)n1 [Taselisib] (first compound max 1 µM, 7x7, partner max 10 µM) |  | 0.661 | 0.565 | 0.668 | 0.584 | 0.921 | 0.97 | 0.8 | 0.713 | 0.42 | 0.548 | 0.99 | 0.65 | 0.457 | 1 | 0.699 | 0.954 | 0.775 | 1 | 0.308 |
| CS(=O)(=O)CCNCc1ccc(-c2ccc3ncnc(Nc4ccc(OCc5cccc(F)c5)c(Cl)c4)c3c2)o1 [Lapatinib] + NC1(c2ccc(-c3nc4ccn5c(=O)[nH]nc5c4cc3-c3ccccc3)cc2)CCC1 [MK-2206] (first compound max 10 µM, 7x7, partner max 10 µM) |  | 0.978 | 0.611 | 0.893 | 0.509 | 0.917 | 0.969 | 0.913 | 0.756 | 0.904 | 0.523 | 0.653 | 0.922 |  | 1 | 0.897 | 0.7 | 0.908 |  | 0.408 |
| Cc1c2c(nn1C)CSCc1cc(n(C)n1)CSc1cc(c3ccccc3c1)OCCCc1c(C(=O)O)n(C)c3c-2c(Cl)ccc13 [AZD5991] + C[C@@H]1COCCN1C2=NC(=NC(=C2)C3(CC3)[S@](=N)(=O)C)C4=C5C=CNC5=NC=C4 [AZD6738] (first compound max 1 µM, 7x7, partner max 10 µM) | 0.643 | 0.822 | 0.443 | 0.815 | 0.859 | 0.902 | 1 | 0.892 | 0.774 | 0.399 | 0.518 | 0.841 | 0.619 | 0.829 | 1 | 0.47 | 0.526 | 1 | 1 |  |
| Cc1c2c(nn1C)CSCc1cc(n(C)n1)CSc1cc(c3ccccc3c1)OCCCc1c(C(=O)O)n(C)c3c-2c(Cl)ccc13 [AZD5991] + C=CCn1c(=O)c2cnc(Nc3ccc(N4CCN(C)CC4)cc3)nc2n1-c1cccc(C(C)(C)O)n1 [AZD1775] (first compound max 1 µM, partner max 1 µM) | 0.679 | 0.466 | 0.402 | 0.657 | 0.895 | 0.885 | 1 | 0.921 | 0.634 | 0.188 | 0.457 | 0.815 | 0.76 | 0.949 | 1 | 0.387 | 0.465 | 1 | 1 |  |
| COc1nnc2ccc(N3CCC(c4ccc(OCCN5CCN(C)C(=O)[C@H]5C)cc4)CC3)nn12 [AZD5153] + CN(CC[C@H](CSC1=CC=CC=C1)NC2=C(C=C(C=C2)S(=O)(=O)NC(=O)C3=CC=C(C=C3)N4CCC(CC4)[C@H](C5=CC=CC=C5C6=CC=C(C=C6)Cl)O)S(=O)(=O)C(F)(F)F)CCO [AZD4320] (first compound max 1 µM, 7x7, partner max 1 µM) | 0.695 |  |  |  | 0.548 |  | 1 |  |  |  |  |  |  | 0.272 |  |  |  |  | 0.994 |  |
| CS(=O)(=O)CCNCc1ccc(-c2ccc3ncnc(Nc4ccc(OCc5cccc(F)c5)c(Cl)c4)c3c2)o1 [Lapatinib] + Cn1cnc2c(F)c(Nc3ccc(Br)cc3Cl)c(C(=O)NOCCO)cc21 [Selumetinib] (first compound max 10 µM, 7x7, partner max 10 µM) |  | 0.811 | 0.576 | 0.437 |  | 0.963 |  | 0.542 | 0.365 | 0.204 | 0.257 | 0.611 | 0.357 |  | 0.707 | 0.422 | 0.585 | 0.825 |  | 0.257 |
